Results from article PMC6257630, “Photoactivatable Cell-Selective Dinuclear trans-Diazidoplatinum(IV) Anticancer Prodrugs” (Inorganic Chemistry, 2018).
Like-named read-outs stand apart in the source and are kept apart here. Marks after values point to notes of the source that are not given here.

Columns and labels:
[1] = test system: OE19 esophageal adenocarcinoma cells; test: Photo/dark cytotoxicity (SRB assay); details: 1 h incubation, 24 h recovery
[2] = test system: A2780 ovarian carcinoma cells; details: for IC50: 1 h incubation, 24 h recovery
[3] = test system: cisplatin-resistant A2780cis ovarian carcinoma cells; details: 1 h incubation, 24 h recovery
[4] = test system: A2780 cells; test: Cell cycle analysis by flow cytometry; format: cell-based, human; details: A2780, dark; equipotent photocytotoxic IC50 concentration, 1 h exposure + 1 h dark
Description: (§1) All flow cytometry experiments were carried out using a Becton Dickinson FACScan flow cytometer in the School of Life Sciences at Warwick University. Typically, cells were seeded in 6-well plates using 1.5 × 10^6 cells/well. Experiments included 24 h of preincubation in drug-free media at 310 K in a CO2 humidified atmosphere, followed by 1 h of drug exposure under the same conditions. After this, samples were irradiated for 1 h. For comparison, the dark plates were kept in the incubator for another 1 h. Supernatants were removed, cells were washed with PBS. Samples were then collected after trypsinization, washed with PBS, and stained in the dark with a mixture of propidium iodide and RNase. After 30 min of staining, the cell samples were washed and set up for flow cytometry reading on the red channel FL-2.
(§2) The effect of complexes 3 and 4 in the presence of light on the progression of the cell cycle was studied. Cells were exposed to prodrugs at equipotent photocytotoxic IC50 concentrations for 1 h in the dark and then irradiated for 1 h (465 nm, 4.8 mW/cm^2, 1 h). After 24 h of recovery, cells were stained in the dark with propidium iodide in the presence of RNase and then analyzed by flow cytometry.

[5] = test system: A2780cis cells; test: Cell cycle analysis by flow cytometry; format: cell-based, human; details: dark, equipotent photocytotoxic IC50 concentration, 1 h exposure + 1 h dark
Description: as §1, §2

[6] = test system: OE19 cells; test: Cell cycle analysis by flow cytometry; format: cell-based, human; details: OE19, dark; equipotent photocytotoxic IC50 concentration, 1 h exposure + 1 h dark
Description: as §1, §2

[7] = test system: MRC5 normal fibroblast cells; test: Photo/dark cytotoxicity (SRB assay)
[8] = test system: cisplatin-resistant A2780cis ovarian carcinoma cells; test: cells; details: Homo sapiens, light or radiation study
[9] = test system: A2780 ovarian carcinoma cells; test: cells; details: Homo sapiens, A2780, light or radiation study
[10] = test system: negatively supercoiled pSP73KB plasmid; set-up: method as in PMID 22420335; details: photoactivated, identical conditions; cited from earlier work
[11] = test system: A2780 cells; test: Pt accumulation in cancer cells (ICP-MS); format: cell-based, human; details: equipotent IC50 concentration, 1 h, in the dark
[12] = test system: parental A2780 cells; set-up: method as in PMID 20677309; details: cited from earlier work
[13] = test system: plasmid pUC19 linearized by EcoRI; test: Formation of DNA interstrand cross-links; format: biochemical; details: irradiated with blue light 1 h + 23 h dark, 10 mM NaClO4, 310 K; rb 0.003 and 0.0006 (FM-190) or 0.00015 and 0.0003 (1, 4)
Description: Solutions of the plasmid pUC19 linearized by EcoRI (50 μg/mL) were incubated with the Pt complex under irradiation conditions (for 1 h and subsequently incubated in the dark for an additional 23 h) at various ri values in NaClO4 (10 mM) at 310 K. Autoradiograms were recorded of denaturing 1% agarose gel of linearized DNA, which was 3′-end-labeled and nonmodified or modified by FM-190, 1, and 4 photoactivated by visible light.
Therefore, we investigated the capability of irradiated 1 and 4 to form DNA interstrand cross-links as well. Plasmid pUC19 linearized by EcoRI (50 μg mL^–1) and the Pt complex were irradiated with blue light for 1 h and subsequently incubated in the dark for an additional 23 h in NaClO4 (10 mM) at 310 K. The plasmid was modified to the extent corresponding to the rb values of 0.003 and 0.0006 (in the case of FM-190) or 0.00015 and 0.0003 (in the case of 1 and 4) and analyzed by agarose gel electrophoresis under denaturing conditions (Figure 5C). Interstrand cross-linked DNA appears as the top band (marked as ICLs), migrating on the gel more slowly than single-stranded DNA (contained in the bottom bands and marked as ss). […] It is, therefore, reasonable to envisage that the treatment of DNA by irradiated dinuclear 1 or 4 results in the formation of trans GG interstrand DNA cross-links as in the case of the treatment with mononuclear complex FM-190.

[14] = A2780, irrad, 1 h irradiation (465 nm, 4.8 mW/cm^2)
[15] = MRC5 normal cells, dark, 1 h incubation, 1 h dark, 24 h recovery
[16] = MRC5 normal cells, irrad, 1 h incubation, 1 h irradiation (465 nm), 24 h recovery

In the case of [NH2][Pt]([NH2])([Cl])[Cl] [CDDP, cisplatin], the IC50 ([1]; OE19, dark, 1 h dark) is reported as > 100 µM, the IC50 ([1]; OE19, irrad, 1 h irradiation (465 nm, 4.8 mW/cm^2)) is reported as > 100 µM and the IC50 ([2]; A2780, dark, 1 h dark) is reported as > 100 µM. For the same molecule, the IC50 [2, 14] was > 100 µM, the IC50 ([3]; dark, 1 h dark) was > 100 µM and the IC50 ([3]; irrad, 1 h irradiation (465 nm, 4.8 mW/cm^2)) was > 100 µM. For the same molecule, the “% Cell Population, G1 phase” value [4] was 32.1±0.5%, the “% Cell Population, G2/M phase” value [4] was 67.4±0.9% and the “% Cell Population, S phase” value [4] was 0.4±0.5%. For the same molecule, the “% Cell Population, G1 phase” value [5] was 64.2±2.8%, the “% Cell Population, G2/M phase” value [5] was 22.0±0.4% and the “% Cell Population, S phase” value [5] was 13.8±2.4%. For the same molecule, the “% Cell Population, G1 phase” value [6] was 36.3±1.2%, the “% Cell Population, G2/M phase” value [6] was 45.5±0.9% and the “% Cell Population, S phase” value [6] was 18.2±0.3%. The IC50 [7, 15] was > 100 µM and the IC50 [7, 16] was > 100 µM.
For CN(C)CCCN1c2ccccc2Sc2ccc(Cl)cc21 [CPZ, chlorpromazine], the IC50 [8] was 6 ± 0.3 µM, the IC50 [9] was 6 ± 0.3 µM and the IC50 ([7]; Homo sapiens, MRC5) was > 100 µM. The IC50 ([7]; Homo sapiens, MRC5, light or radiation study) was > 50 µM.
For “trans,trans,trans-[Pt(N3)2(OH)2(py)2] [FM-190]”, the DNA unwinding angle [10] is given as 28 ± 4 °, the “PI (photocytotoxicity index)” value ([2]; A2780, dark vs irradiated (465 nm)) is given as >14.0 and the IC50 ([2]; A2780, dark, 1 h dark) is given as > 100 µM. The IC50 [2, 14] was 7.1 ± 0.4 µM, the platinum accumulation [11] was 0.8 ± 0.2 ^b ng/10^6 cells and the “toxicity to parental A2780 compared with A2780cis” value ([12]; irradiation with UVA (365 nm)) was 10 times. The IC50 ([12]; parental A2780, irradiation with UVA (365 nm)) was 1400 nM, the IC50 [7, 15] was > 100 µM and the IC50 [7, 16] was > 100 µM. The “frequencies of interstrand cross-linking” value [13] was 12.5 ± 0.5.
